Laboratory results from patent US10752612B2, “PLK4 inhibitors” (LUDWIG INSTITUTE FOR CANCER RESEARCH LTD, priority 2015, dated 2020).

Target: T1, human Plk4 kinase domain (aa 2-275) (Homo sapiens, UniProt O00444)
T1 construct: purified 6×His-tagged human Plk4 kinase domain (aa 2-275); 6xHis; made in house; host or cells: E. coli
T1 sequence (O00444 2-275): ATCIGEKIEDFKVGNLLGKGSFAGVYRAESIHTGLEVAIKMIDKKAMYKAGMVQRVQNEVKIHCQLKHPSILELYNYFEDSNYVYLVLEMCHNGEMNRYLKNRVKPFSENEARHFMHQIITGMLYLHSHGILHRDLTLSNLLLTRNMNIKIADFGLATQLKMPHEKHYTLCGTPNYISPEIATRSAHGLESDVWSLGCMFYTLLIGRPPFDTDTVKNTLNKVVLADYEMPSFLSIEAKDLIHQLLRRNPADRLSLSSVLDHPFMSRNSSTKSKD
Assay: Plk4 kinase assay (ADP-Glo)
Format: biochemical
Settings: Table 1
In short: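 Enzyme at 2.5-10 nM final, pH 8.0, reacted 4-16 hours at 25° C; ADP generation read by ADP-Glo luminescence. Ki derived from IC50 by Cheng-Prusoff or, for tight binders, Copeland formalism.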

SMILES | IC50 [µM]
CCCOc1c(Nc2cc(C)[nH]n2)nc(Sc2ccc(NC(=O)C3CC3)cc2)nc1N(CC)CC | 0.1 to 1
COc1c(Nc2cc(C)[nH]n2)nc(Sc2ccc(C(=O)Oc3cccc([N+](=O)[O-])c3F)cc2F)nc1N1CCOCC1 | < 1
COc1c(Nc2cc(C)[nH]n2)nc(Sc2ccc(S(=O)(=O)C(C)(C)c3cccc([N+](=O)[O-])c3F)cc2F)nc1N1CCOCC1 | < 1
COc1c(Nc2cc(C)[nH]n2)nc(Sc2ccc(NC(=O)c3cccc([N+](=O)[O-])c3F)cc2F)nc1N1CCOCC1 | 0.1 to 1
COc1c(Nc2cc(C)[nH]n2)nc(Sc2ccc(S(=O)(=O)Cc3cccc(C#N)c3F)cc2F)nc1N1CCCCC1 | < 1
COc1c(Nc2cc(C)[nH]n2)nc(Sc2ccc(S(=O)(=O)Cc3cccc(C#N)c3F)cc2F)nc1N1CCN(CCN(C)C)CC1 | < 1
COc1c(Nc2cc(C)[nH]n2)nc(Sc2ccc(S(=O)(=O)C(F)c3cccc(C#N)c3F)cc2F)nc1N1CCOCC1 (stereo not drawn) | < 1
COc1c(Nc2cc(C)[nH]n2)nc(Sc2ccc(S(=O)(=O)Nc3cccc([N+](=O)[O-])c3)cc2F)nc1N1CCOCC1 | < 1
COc1c(Nc2cc(C)[nH]n2)nc(Sc2ccc(S(=O)(=O)Cc3cccc([N+](=O)[O-])c3F)cc2F)nc1N1CCCC[C@@H]1CO | < 1
COc1c(Nc2cc(C)[nH]n2)nc(Sc2ccc(S(=O)(=O)Cc3cccc([N+](=O)[O-])c3F)cc2F)nc1N1CCC(CCN(C)C)CC1 | < 1
COc1c(Nc2cc(C)[nH]n2)nc(Sc2ccc(NC(=O)Cc3cccc([N+](=O)[O-])c3F)cc2F)nc1N1CCOCC1 | < 1
COc1c(Nc2cc(C)[nH]n2)nc(Sc2ccc(S(=O)(=O)C(F)c3cccc([N+](=O)[O-])c3F)cc2F)nc1N1CCC(CCN(C)C)CC1 (stereo not drawn) | < 1
COc1c(Nc2cc(C)[nH]n2)nc(Sc2ccc(S(=O)(=O)C(C)(C)c3cccc([N+](=O)[O-])c3F)cc2F)nc1N1CCCCC1 | < 1
COc1c(Nc2cc(C)[nH]n2)nc(Sc2ccc(S(=O)(=O)C(C)(C)c3cccc([N+](=O)[O-])c3F)cc2F)nc1N1CCN(CCN(C)C)CC1 | < 1
COc1c(Nc2cc(C)[nH]n2)nc(Sc2ccc(S(=O)(=O)C(F)c3cccc([N+](=O)[O-])c3F)cc2F)nc1N1CCOC[C@@H]1CO (stereo partly drawn) | < 1
COc1c(Nc2cc(C)[nH]n2)nc(Sc2ccc(S(=O)(=O)C(F)c3c(F)c(F)cc(F)c3F)cc2F)nc1N1CCOCC1 (stereo not drawn) | < 1
COc1c(Nc2cc(C)[nH]n2)nc(Sc2ccc(S(=O)(=O)C(C)(C)c3c(F)c(F)cc(F)c3F)cc2F)nc1N1CCN(CCN(C)C)CC1 | < 1
COc1c(Nc2cc(C)[nH]n2)nc(Sc2ccc(S(=O)(=O)C(C)(C)c3cccc([N+](=O)[O-])c3F)cc2F)nc1N1CCC(CCN(C)C)CC1 | < 1
COc1c(Nc2cc(C)[nH]n2)nc(Sc2ccc(S(=O)(=O)C(C)(C)c3cccc([N+](=O)[O-])c3F)cc2F)nc1N1CCOC[C@@H]1CO | < 1
COc1c(Nc2cc(C)[nH]n2)nc(Sc2ccc(S(=O)(=O)C(C)(C)c3cccc(Cl)c3F)cc2F)nc1N1CCOCC1 | < 1

SMILES | IC50 [µM]
COc1c(Nc2cc(C)[nH]n2)nc(Sc2ccc(S(=O)(=O)C(C)(C)c3cccc(Cl)c3F)cc2F)nc1N1CCN(CCN(C)C)CC1 | < 1
COc1c(Nc2cc(C)[nH]n2)nc(Sc2ccc(S(=O)(=O)C(C)(C)c3cc(F)cc(Cl)c3F)cc2F)nc1N1CCOCC1 | < 1
COc1c(Nc2cc(C)[nH]n2)nc(Sc2ccc(S(=O)(=O)C(C)(C)c3cccc([N+](=O)[O-])c3F)cc2F)nc1N1CCNCC1 | < 1
COc1c(Nc2cc(C)[nH]n2)nc(Sc2ccc(S(=O)(=O)C(C)(C)c3cccc(Cl)c3F)cc2F)nc1N1CCC(CCN(C)C)CC1 | < 1
COc1c(Nc2cc(C)[nH]n2)nc(Sc2ccc(S(=O)(=O)C(C)(C)c3cccc([N+](=O)[O-])c3F)cc2F)nc1N1CCC(CC(=O)N(C)C)CC1 | < 1
COc1c(Nc2cc(C)[nH]n2)nc(Sc2ccc(S(=O)(=O)C(C)(C)c3c(F)c(F)cc(F)c3F)cc2F)nc1N1CCC(N(C)C)CC1 | < 1
COc1c(Nc2cc(C)[nH]n2)nc(Sc2ccc(S(=O)(=O)C(C)(C)c3c(F)c(F)cc(Cl)c3F)cc2F)nc1N1CCOCC1 | < 1
COc1c(Nc2cc(C)[nH]n2)nc(Sc2ccc(S(=O)(=O)Cc3c(F)c(F)cc(Cl)c3F)cc2F)nc1N1CCN(CCN(C)C)CC1 | < 1
COc1c(Nc2cc(C)[nH]n2)nc(Sc2ccc(S(=O)(=O)Cc3c(F)c(F)cc(Cl)c3F)cc2F)nc1N1CCC(CCN(C)C)CC1 | < 1
COc1c(Nc2cc(C)[nH]n2)nc(Sc2ccc(S(=O)(=O)C(C)(C)c3cccc([N+](=O)[O-])c3F)cc2F)nc1N1CCC(OC)C1 (stereo not drawn) | < 1
COc1c(Nc2cc(C)[nH]n2)nc(Sc2ccc(S(=O)(=O)C(C)(C)c3cccc([N+](=O)[O-])c3F)cc2F)nc1N1CCN(C(=O)CN(C)C)CC1 | < 1
COc1c(Nc2cc(C)[nH]n2)nc(Sc2ccc(S(=O)(=O)Cc3c(F)c(F)c(F)c(F)c3F)cc2F)nc1N1CCOCC1 | < 1
COc1c(Nc2cc(C)[nH]n2)nc(Sc2ccc(S(=O)(=O)C(C)(C)c3cccc([N+](=O)[O-])c3F)cc2F)nc1N1CCC(NC(C)=O)CC1 | < 1
COc1c(Nc2cc(C)[nH]n2)nc(Sc2ccc(S(=O)(=O)C(C)(C)c3cccc([N+](=O)[O-])c3F)cc2F)nc1N1CC[C@H](NC(C)=O)C1 | < 1
COc1c(Nc2cc(C)[nH]n2)nc(Sc2ccc(S(=O)(=O)C(C)(C)c3cccc([N+](=O)[O-])c3F)cc2F)nc1N1CCN(CC(=O)N(C)C)CC1 | < 1
COc1c(Nc2cc(C)[nH]n2)nc(Sc2ccc(S(=O)(=O)C(C)(C)c3cccc([N+](=O)[O-])c3F)cc2F)nc1N1CC[C@H](N(C)C)C1 | < 1
COc1c(Nc2cc(C)[nH]n2)nc(Sc2ccc(S(=O)(=O)C(C)(C)c3cccc([N+](=O)[O-])c3F)cc2F)nc1N1CC[C@@H](N(C)C)C1 | < 1
COc1c(Nc2cc(C)[nH]n2)nc(Sc2ccc(S(=O)(=O)C(C)(C)c3c(F)c(F)cc(F)c3F)cc2F)nc1N1CCC(NC(C)=O)CC1 | < 1
COc1c(Nc2cc(C)[nH]n2)nc(Sc2ccc(S(=O)(=O)C(C)(C)c3c(F)c(F)cc(F)c3F)cc2F)nc1N1CC[C@H](N(C)C)C1 | < 1
COc1c(Nc2cc(C)[nH]n2)nc(Sc2ccc(S(=O)(=O)C(C)(C)c3c(F)c(F)cc(F)c3F)cc2F)nc1N1CCC(CC(=O)N(C)C)CC1 | < 1

Results, then the compound that gave them:

IC50 [µM] | SMILES
< 1 | Cc1cc(Nc2nc(Sc3ccc(NC(=O)C4CC4)cc3)nc(C)c2C)n[nH]1
< 1 | COc1c(Nc2cc(C)[nH]n2)nc(Sc2ccc(NC(=O)C3CC3)cc2)nc1N1CCCCC1
< 1 | COc1c(Nc2cc(C)[nH]n2)nc(Sc2ccc(NC(=O)C3CC3)cc2)nc1NC(C)C
< 1 | CNc1nc(Sc2ccc(NC(=O)C3CC3)cc2)nc(Nc2cc(C)[nH]n2)c1OC
< 1 | CCNc1nc(Sc2ccc(NC(=O)C3CC3)cc2)nc(Nc2cc(C)[nH]n2)c1OC
< 1 | CC(=O)Nc1ccc(Sc2nc3c(c(Nc4cc(C)[nH]n4)n2)C(C)CC3)cc1 (stereo not drawn)
< 1 | Cc1cc(Nc2nc(Sc3ccc(NC(=O)C4CCCC4)cc3)nc3c2C(C)CC3)n[nH]1 (stereo not drawn)
< 1 | COc1c(Nc2cc(C)[nH]n2)nc(Sc2ccc(NC(=O)C3CC3)cc2)nc1N1CCN(C(C)C)CC1
< 1 | COc1c(Nc2cc(C)[nH]n2)nc(Sc2ccc(NC(=O)C3CC3)cc2)nc1N1CCN(C(C)=O)CC1
< 1 | COc1c(Nc2cc(C)[nH]n2)nc(Sc2ccc(S(=O)(=O)Cc3cccc(C#N)c3F)cc2F)nc1N1CCOCC1
< 1 | COc1c(Nc2cc(C)[nH]n2)nc(Sc2ccc(S(=O)(=O)Cc3cccc(N)c3F)cc2F)nc1N1CCOCC1
< 1 | COc1c(Nc2cc(C)[nH]n2)nc(Sc2ccc(S(=O)(=O)C(F)c3cccc([N+](=O)[O-])c3F)cc2F)nc1N1CCOCC1 (stereo not drawn)
< 1 | COC(=O)c1cccc(CS(=O)(=O)c2ccc(Sc3nc(Nc4cc(C)[nH]n4)c(OC)c(N4CCOCC4)n3)c(F)c2)c1F
< 1 | COc1c(Nc2cc(C)[nH]n2)nc(Sc2ccc(S(=O)(=O)Cc3cccc(C(=O)N(C)C)c3F)cc2F)nc1N1CCOCC1
< 1 | COc1c(Nc2cc(C)[nH]n2)nc(Sc2ccc(S(=O)(=O)Cc3cccc(C(N)=O)c3F)cc2F)nc1N1CCOCC1
< 1 | COc1c(Nc2cc(C)[nH]n2)nc(Sc2ccc(S(=O)(=O)Cc3cccc([N+](=O)[O-])c3F)cc2F)nc1N1CCOC[C@@H]1CO
< 1 | COc1c(Nc2cc(C)[nH]n2)nc(Sc2ccc(S(=O)(=O)Cc3cccc(Br)c3F)cc2F)nc1N1CCCCC1
< 1 | COc1c(Nc2cc(C)[nH]n2)nc(Sc2ccc(S(=O)(=O)Cc3cccc(I)c3F)cc2F)nc1N1CCOCC1
< 1 | COc1c(Nc2cc(C)[nH]n2)nc(Sc2ccc(S(=O)(=O)c3cccc([N+](=O)[O-])c3)cc2F)nc1N1CCOCC1
< 1 | COc1c(Nc2cc(C)[nH]n2)nc(Sc2ccc(C(=O)Nc3cccc([N+](=O)[O-])c3F)cc2F)nc1N1CCOCC1
< 1 | COc1c(Nc2cc(C)[nH]n2)nc(Sc2ccc(S(=O)(=O)C(F)c3cccc([N+](=O)[O-])c3F)cc2F)nc1N1CCN(CCN(C)C)CC1 (stereo not drawn)
< 1 | COc1c(Nc2cc(C)[nH]n2)nc(Sc2ccc(C#Cc3cccc([N+](=O)[O-])c3F)cc2F)nc1N1CCOCC1
< 1 | COc1c(Nc2cc(C)[nH]n2)nc(Sc2ccc(/C=C/c3cccc([N+](=O)[O-])c3F)cc2F)nc1N1CCOCC1
< 1 | COc1c(Nc2cc(C)[nH]n2)nc(Sc2ccc(CCc3cccc([N+](=O)[O-])c3F)cc2F)nc1N1CCOCC1
< 1 | COc1c(Nc2cc(C)[nH]n2)nc(Sc2ccc(-c3cc4cccc([N+](=O)[O-])c4o3)cc2F)nc1N1CCOCC1
< 1 | COc1c(Nc2cc(C)[nH]n2)nc(Sc2ccc(C(=O)Cc3cccc([N+](=O)[O-])c3F)cc2F)nc1N1CCOCC1
